This note sets out measurements from patent US8778923B2, “GLP-1 receptor modulators” (Receptos, Inc., priority 2011, dated 2014).

SMILES strings stand for the structures. pEC50: −log10 of the molar value.

The target of this assay is T1, GLP-1R (Homo sapiens, UniProt P43220).
T1 construct: host or cells: CRE-bla CHO-K1
T1 sequence (P43220 24-463): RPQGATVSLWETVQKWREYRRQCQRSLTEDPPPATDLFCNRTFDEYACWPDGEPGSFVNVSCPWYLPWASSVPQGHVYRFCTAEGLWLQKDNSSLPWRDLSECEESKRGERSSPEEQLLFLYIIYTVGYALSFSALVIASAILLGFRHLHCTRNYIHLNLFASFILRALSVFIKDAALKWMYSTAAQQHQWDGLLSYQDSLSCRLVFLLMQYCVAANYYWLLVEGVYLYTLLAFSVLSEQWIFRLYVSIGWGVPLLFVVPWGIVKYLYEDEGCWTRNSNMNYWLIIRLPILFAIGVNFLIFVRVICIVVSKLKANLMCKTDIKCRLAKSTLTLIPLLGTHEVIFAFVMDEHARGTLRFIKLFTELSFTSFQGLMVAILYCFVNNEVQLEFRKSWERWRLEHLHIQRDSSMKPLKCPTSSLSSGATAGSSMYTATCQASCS
T1 sequence (P01275 100-127 partner limits assumed): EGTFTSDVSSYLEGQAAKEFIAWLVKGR
As to the kind of experiment: EC20 GLP-1(9-36) PAM cAMP assay: dose response of compound in the presence of fixed concentration of GLP-1(9-36). Type of assay: cell-based. The following applies: GLP-1R CRE-bla CHO-K1 cells, compound dose response in presence of fixed concentration of GLP-1(9-36). The method in brief:
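Positive allosteric modulation read as cAMP rise: 12-point compound titration combined with a fixed EC20 level of GLP-1(9-36) on GLP-1R CHO-K1 cells, IBMX present, 30 min at 37 °C. Luminescent HitHunter signal converted to cAMP; nonlinear fit gave EC50 and Emax.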
On the technique in general: Cyclic AMP is a second messenger, typically raised through Gs and lowered through Gi signalling.
Consider `CCCCCCCOc1ccc(-c2cnc(-c3ccc(C[C@H](NC(=O)c4ccc(C(C)(C)C)s4)C(=O)N4CCC(C(=O)O)C4)cc3)nc2)cc1` (stereo partly shown) [Compound 344], for which the pEC50 (as a rule, the negative decadic logarithm of the EC50, by convention in mol/L) was above 6.10.

With `CCCCCCCOc1ccc(-c2cnc(-c3ccc(C[C@H](NC(=O)c4ccc(C(C)(C)C)s4)C(=O)N[C@H](C)CC(=O)O)cc3)nc2)cc1` [Compound 345], the pEC50 is above 6.10.

Consider `CCCCCCCOc1ccc(-c2cnc(-c3ccc(C[C@H](NC(=O)c4ccc(C(C)(C)C)s4)C(=O)N[C@@H](C)CC(=O)O)cc3)nc2)cc1` [Compound 346], for which the pEC50 is 5.60 to 6.10.

Consider `CCCCCCCOc1ccc(-c2cnc(-c3ccc(C[C@H](NC(=O)c4ccc(C(C)(C)C)s4)C(=O)N4CCCC(C(=O)O)C4)cc3)nc2)cc1` (stereo partly shown) [Compound 347], for which the pEC50 is above 6.10.

With `CCCCCCCOc1ccc(-c2cnc(-c3ccc(C[C@H](NC(=O)c4ccc(C(C)(C)C)s4)C(=O)N4CC[C@@H](C(=O)O)C4)cc3)nc2)cc1` [Compound 348], the pEC50 is 5.60 to 6.10.

Turning to `CCCCCCCOc1ccc(-c2cnc(-c3ccc(C[C@H](NC(=O)c4ccc(C(C)(C)C)s4)C(=O)N4CC[C@H](C(=O)O)C4)cc3)nc2)cc1` [Compound 349], the pEC50 was above 6.10.

In the case of `CCCCCCCOc1ccc(-c2cnc(-c3ccc(C[C@H](NC(=O)c4ccc(C(C)(C)C)s4)C(=O)NC(CC(=O)O)c4ccc(O)cc4)cc3)nc2)cc1` (stereo partly shown) [Compound 350], the pEC50 was above 6.10.

As for `CC(C)(C)c1ccc(-c2cnc(-c3ccc(C[C@H](NC(=O)c4ccc(C(C)(C)C)s4)C(=O)NCC(=O)O)cc3)nc2)cc1` [Compound 351], the pEC50 was above 6.10.

Turning to `CC(C)(C)c1ccc(-c2cnc(-c3ccc(C[C@H](NC(=O)c4ccc(C(C)(C)C)s4)C(=O)N[C@@H](CO)C(=O)O)cc3)nc2)cc1` [Compound 352], the pEC50 is above 6.10.

Regarding `CC(C)(C)c1ccc(-c2cnc(-c3ccc(C[C@H](NC(=O)c4ccc(C(C)(C)C)s4)C(=O)N[C@H](CCC(N)=O)C(=O)O)cc3)nc2)cc1` [Compound 353], the pEC50 is 5.60 to 6.10.

Consider `CC(C)(C)c1ccc(-c2cnc(-c3ccc(C[C@H](NC(=O)c4ccc(C(C)(C)C)s4)C(=O)N[C@H](CO)C(=O)O)cc3)nc2)cc1` [Compound 354], for which the pEC50 is above 6.10.

Take `CC(C)(C)c1ccc(-c2cnc(-c3ccc(C[C@H](NC(=O)c4ccc(C(C)(C)C)s4)C(=O)N[C@H](CC(=O)O)C(=O)O)cc3)nc2)cc1` [Compound 355]: the pEC50 is 5.60 to 6.10.

With `CC(C)(C)c1ccc(-c2cnc(-c3ccc(C[C@H](NC(=O)c4ccc(C(C)(C)C)s4)C(=O)N[C@H](Cc4cnc[nH]4)C(=O)O)cc3)nc2)cc1` [Compound 356], the pEC50 was 5.60 to 6.10.

For the molecule `C[C@@H](NC(=O)[C@H](Cc1ccc(-c2ncc(-c3ccc(C(C)(C)C)cc3)cn2)cc1)NC(=O)c1ccc(C(C)(C)C)s1)C(=O)O` [Compound 357], the pEC50 was 5.60 to 6.10.

Turning to `CC(C)(C)c1ccc(-c2cnc(-c3ccc(C[C@H](NC(=O)c4ccc(C(C)(C)C)s4)C(=O)N4CCC[C@@H]4C(=O)O)cc3)nc2)cc1` [Compound 358], the pEC50 is 5.60 to 6.10.

Take `CC(C)(C)c1ccc(-c2cnc(-c3ccc(C[C@H](NC(=O)c4ccc(C(C)(C)C)s4)C(=O)N[C@H](CCC(=O)O)C(=O)O)cc3)nc2)cc1` [Compound 359]: the negative-log EC50 (pEC50) was 5.60 to 6.10.

Turning to `CC(C)(C)c1ccc(-c2cnc(-c3ccc(C[C@H](NC(=O)c4ccc(C(C)(C)C)s4)C(=O)N[C@@H](CCC(N)=O)C(=O)O)cc3)nc2)cc1` [Compound 360], the pEC50 is 5.60 to 6.10.

Take `CC(C)(C)c1ccc(-c2cnc(-c3ccc(C[C@H](NC(=O)c4ccc(C(C)(C)C)s4)C(=O)N[C@@H](CC(=O)O)C(=O)O)cc3)nc2)cc1` [Compound 361]: the pEC50 was 5.60 to 6.10.

On to `CC(C)(C)c1ccc(-c2cnc(-c3ccc(C[C@H](NC(=O)c4ccc(C(C)(C)C)s4)C(=O)N4CCC[C@H]4C(=O)O)cc3)nc2)cc1` [Compound 362], for which the pEC50 is 5.30 to 5.60.

Take `CC(C)(C)c1ccc(-c2cnc(-c3ccc(C[C@H](NC(=O)c4ccc(C(C)(C)C)s4)C(=O)N[C@@H](CCC(=O)O)C(=O)O)cc3)nc2)cc1` [Compound 363]: the pEC50 was 5.60 to 6.10.

On to `C[C@H](NC(=O)[C@H](Cc1ccc(-c2ncc(-c3ccc(C(C)(C)C)cc3)cn2)cc1)NC(=O)c1ccc(C(C)(C)C)s1)C(=O)O` [Compound 364], for which the pEC50 was 5.60 to 6.10.

Take `CC(C)(C)c1ccc(-c2cnc(-c3ccc(C[C@H](NC(=O)c4ccc(C(C)(C)C)s4)C(=O)NC(CN4CCCC4)C(=O)O)cc3)nc2)cc1` (stereo partly shown) [Compound 365]: the pEC50 is 5.30 to 5.60.

For the molecule `CC(C)(C)c1ccc(-c2cnc(-c3ccc(C[C@H](NC(=O)c4ccc(C(C)(C)C)s4)C(=O)NC(CN)C(=O)O)cc3)nc2)cc1` (stereo partly shown) [Compound 366], the pEC50 was 5.30 to 5.60.

Consider `CSCC[C@H](NC(=O)[C@H](Cc1ccc(-c2ncc(-c3ccc(C(C)(C)C)cc3)cn2)cc1)NC(=O)c1ccc(C(C)(C)C)s1)C(=O)O` [Compound 367], for which the pEC50 was 5.60 to 6.10.

As to `CSCC[C@@H](NC(=O)[C@H](Cc1ccc(-c2ncc(-c3ccc(C(C)(C)C)cc3)cn2)cc1)NC(=O)c1ccc(C(C)(C)C)s1)C(=O)O` [Compound 368], the negative logarithm of the EC50 (pEC50) was above 6.10.

As for `CCCCCCCOc1ccc(-c2cnc(-c3ccc(C[C@H](NC(=O)c4cnn(C(C)C)c4)C(=O)NCC(=O)O)cc3)nc2)cc1` [Compound 369], the pEC50 was 5.60 to 6.10.

For the molecule `CC(C)n1cc(C(=O)N[C@@H](Cc2ccc(-c3ncc(-c4ccc(C(C)(C)C)cc4)cn3)cc2)C(=O)NCC(=O)O)cn1` [Compound 370], the pEC50 is 5.60 to 6.10.

On to `CCCCCCCOc1ccc(-c2cnc(-c3ccc(C[C@H](NC(=O)c4ncc(C(C)(C)C)s4)C(=O)NCC(=O)O)cc3)nc2)cc1` [Compound 371], for which the pEC50 was above 6.10.

Consider `CCCCCCCOc1ccc(-c2cnc(-c3ccc(C[C@H](NC(=O)c4cnn(C(C)(C)C)c4)C(=O)NCC(=O)O)cc3)nc2)cc1` [Compound 372], for which the pEC50 was above 6.10.

As for `CC(C)(C)c1ccc(-c2cnc(-c3ccc(C[C@@H](NC(=O)c4ccc(C(C)(C)C)s4)C(=O)NCC(=O)O)cc3)nc2)cc1` [Compound 373], the pEC50 was 5.60 to 6.10.

As to `CCCCCCCOc1ccc(-c2cnc(-c3ccc(C[C@@H](NC(=O)c4ccc(C(C)(C)C)s4)C(=O)N[C@@H](C)C(=O)O)cc3)nc2)cc1` [Compound 374], the pEC50 was 5.60 to 6.10.

On to `CCCCCCCOc1ccc(-c2cnc(-c3ccc(C[C@@H](NC(=O)c4ccc(C(C)(C)C)s4)C(=O)N[C@H](C)C(=O)O)cc3)nc2)cc1` [Compound 375], for which the pEC50 was above 6.10.

As to `CCCCCCCOc1ccc(-c2cnc(-c3ccc(C[C@@H](NC(=O)c4ccc(C(C)(C)C)s4)C(=O)NCC(=O)O)cc3)nc2)cc1` [Compound 376], the pEC50 is 5.60 to 6.10.

Consider `CCCCCCCOc1ccc(-c2cnc(-c3ccc(C[C@@H](NC(=O)c4ccc(C(C)(C)C)s4)C(=O)N[C@@H](CCC(N)=O)C(=O)O)cc3)nc2)cc1` [Compound 377], for which the pEC50 is above 6.10.

For `CCCCCCCOc1ccc(-c2cnc(-c3ccc(C[C@@H](NC(=O)c4ccc(C(C)(C)C)s4)C(=O)N[C@@H](CO)C(=O)O)cc3)nc2)cc1` [Compound 378], the pEC50 was above 6.10.

Regarding `CCCCCCCOc1ccc(-c2cnc(-c3ccc(C[C@@H](NC(=O)c4ccc(C(C)(C)C)s4)C(=O)N[C@H](CO)C(=O)O)cc3)nc2)cc1` [Compound 379], the pEC50 was above 6.10.

For `CCCCCCCOc1ccc(-c2cnc(-c3ccc(C[C@H](NC(=O)c4ccc(C(C)(C)C)cc4)C(=O)NCC(=O)NS(C)(=O)=O)cc3)nc2)cc1` [Compound 381, (S)-4-(tert-butyl)-N-(3-(4-(5-(4-(heptyloxy)phenyl)pyrimidin-2-yl)phenyl)-1-((2-(methylsulfonamido)-2-oxoethyl)amino)-1-oxopropan-2-yl)benzamide], the pEC50 is 5.60 to 6.10.
